In PMC6630832, “3-Vinylazetidin-2-Ones: Synthesis, Antiproliferative and Tubulin Destabilizing Activity in MCF-7 and MDA-MB-231 Breast Cancer Cells” (Pharmaceuticals, 2019):
Read-outs that look alike come from different tables or passages of the source.

Assays:
SNB-19 = assay: NCI60 screen (SRB), CNS Cancer; format: cell-based; settings: Homo sapiens
OVCAR-3 = assay: NCI60 screen (SRB), Ovarian cancer; format: cell-based; settings: Homo sapiens
MDA-MB-468 = assay: NCI60 screen (SRB), Breast cancer; format: cell-based; settings: Homo sapiens
CAKI-1 = assay: NCI60 screen (SRB), Renal cancer; format: cell-based; settings: Homo sapiens
SK-MEL-28 = assay: NCI60 screen (SRB), Melanoma; format: cell-based; settings: Homo sapiens
A498 = assay: NCI60 screen (SRB), Renal cancer; format: cell-based; settings: Homo sapiens
M14 = assay: NCI60 screen (SRB), Melanoma; format: cell-based; settings: Homo sapiens
PC-3 = assay: NCI60 screen (SRB), Prostate cancer; format: cell-based; settings: Homo sapiens
HCT-15 = assay: NCI60 screen (SRB), Colon Cancer; format: cell-based; settings: Homo sapiens
HCT-116 = assay: NCI60 screen (SRB), Colon Cancer; format: cell-based; settings: Homo sapiens
BT-549 = assay: NCI60 screen (SRB), Breast cancer; format: cell-based; settings: Homo sapiens
OVCAR-4 = assay: NCI60 screen (SRB), Ovarian cancer; format: cell-based; settings: Homo sapiens
ACHN = assay: NCI60 screen (SRB), Renal cancer; format: cell-based; settings: Homo sapiens
Plasma stability study = format: in vitro ADME, human; parameters: half-life: dose or concentration left out as unconfirmed; settings: 37 °C; for remaining after 6 h: human plasma
Protocol: Analytical high-performance liquid chromatography (HPLC) stability studies were performed using a Symmetry® column (C18, 5 µm, 4.6 × 150 mm), a Waters 2487 Dual Wavelength Absorbance detector, a Waters 1525 binary HPLC pump and a Waters 717 plus Autosampler (Waters Corporation, 34 Maple St, Milford, MA, USA). Samples were detected at wavelength of 254 nm. All samples were analysed using acetonitrile (80%) and water (20%) as the mobile phase over 10 min and a flow rate of 1 mL/min. Stock solutions were prepared by dissolving 5 mg of compound 7s, 17b and 17c in 10 mL of mobile phase. Phosphate buffers at the desired pH values (4, 7.4 and 9) were prepared in accordance with the British Pharmacopoeia monograph 2015. 30 µL of stock solution was diluted with 1 mL of appropriate buffer, shaken and injected immediately. Samples were withdrawn and analysed at time intervals of t = 0 min, 5 min, 30 min, 60 min, 90 min, 120 min, 24 h and 48 h. Plasma stability studies: 360 µL stock solution of compounds 7s, 17b and 17c were transferred to buffered plasma (plasma: buffer = 1:9, 4 mL in total) at 37 °C in screw cap container. Immediately a 250 µL aliquot was withdrawn and added to the Eppendorf tube containing 500 µL ZnSO4.7H2O solution (2% w/v ZnSO4 solution in acetonitrile: water, 1:1). The samples were then centrifuged at 10,000 rpm for 3 min and filtered through a 0.2-micron filter and injected according to the HPLC conditions listed above. Further samples were taken in the same manner every 1 h thereafter up to 6 h. A final sample was taken after 24 h. Whole blood stability studies. A 360 µL aliquot of stock solution of compounds 17b and 17c in acetonitrile was added in whole blood (4 mL, treated with 2% sodium citrate) at 37 °C and 300 µL aliquots were withdrawn at approptiate intervals. Samples were transferred to 1.5 mL Eppenddorf tubes containing 1 mL of ZnSO4. 7H2O solution (2% w/v ZnSO4 solution in acetonitrile: water, 1:1), vortexed and then centrifuged for 5 min at 14,000 rpm. The sample filtered through a 0.2-micron filter and injected according to the HPLC conditions listed above.

K-562 = assay: NCI60 screen (SRB), Leukemia; format: cell-based; settings: Homo sapiens, K562
CCRF-CEM = assay: NCI60 screen (SRB), Leukemia; format: cell-based; settings: Homo sapiens
SF539 = assay: NCI60 screen (SRB), CNS Cancer; format: cell-based; settings: Homo sapiens, SF-539
[1] = NCI60 CNS Cancer cell line SNB-19, read-out: GI50
[2] = NCI60 Ovarian cancer cell line OVCAR-3, read-out: GI50
[3] = NCI60 Breast cancer cell line MDA-MB-468, read-out: GI50
[4] = NCI60 Renal cancer cell line CAKI-1, read-out: GI50
[5] = NCI60 Melanoma cell line SK-MEL-28, read-out: GI50
[6] = human, buffered plasma (plasma:buffer 1:9), plasma, read-out: half-life (t½)
[7] = NCI60 Renal cancer cell line A498, read-out: GI50
[8] = NCI60 Melanoma cell line M14, read-out: GI50
[9] = NCI60 Prostate cancer cell line PC-3, read-out: GI50
[10] = NCI60 Colon Cancer cell line HCT-15, read-out: GI50
[11] = NCI60 Colon Cancer cell line HCT-116, read-out: GI50
[12] = NCI60 Breast cancer cell line BT-549, read-out: GI50
[13] = NCI60 Ovarian cancer cell line OVCAR-4, read-out: GI50
[14] = NCI60 Renal cancer cell line ACHN, read-out: GI50
[15] = NCI60 Leukemia cell line K-562, read-out: GI50
[16] = NCI60 Leukemia cell line CCRF-CEM, read-out: GI50
[17] = NCI60 CNS Cancer cell line SF539, read-out: GI50

SMILES	GI50 (SNB-19; SNB-19) [nM]	GI50 (OVCAR-3; OVCAR-3) [nM]	GI50 (MDA-MB-468; MDA-MB-468) [nM]	GI50 (CAKI-1; CAKI-1) [nM]	GI50 (SK-MEL-28; SK-MEL-28) [nM]	GI50 (A498; A498) [nM]	GI50 (M14; M14) [nM]	GI50 (SNB-19; [1]) [nM]	GI50 (OVCAR-3; [2]) [nM]	GI50 (MDA-MB-468; [3]) [nM]	GI50 (CAKI-1; [4]) [nM]	GI50 (SK-MEL-28; [5]) [nM]	GI50 (A498; [7]) [nM]	GI50 (M14; [8]) [nM]	GI50 (PC-3; [9]) [nM]	GI50 (HCT-15; [10]) [nM]	GI50 (HCT-116; [11]) [nM]	GI50 (BT-549; [12]) [nM]	GI50 (OVCAR-4; [13]) [nM]	GI50 (ACHN; [14]) [nM]	further results
C=CC1C(=O)N(c2cc(OC)c(OC)c(OC)c2)C1c1ccc(OC)cc1 (stereo not shown) [Compound 7h, 4-(4-Methoxyphenyl)-1-(3,4,5-trimethoxyphenyl)-3-vinylazetidin-2-one]	54.2	25.1	22.7	392	59.9	18.3	25.2	–	–	–	–	–	–	–	–	–	–	–	–	–	GI50 (PC-3; PC-3): 37.4 nM; GI50 (HCT-15; HCT-15): 37.1 nM; GI50 (HCT-116; HCT-116): 30.7 nM; GI50 (BT-549; BT-549): 32.5 nM; GI50 (OVCAR-4; OVCAR-4): 77.6 nM; GI50 (ACHN; ACHN): 61.5 nM
C=CC1C(=O)N(c2cc(OC)c(OC)c(OC)c2)C1c1ccc(OC)c(O)c1 (stereo not shown) [Compound 7s, 4-[3-Hydroxy-4-methoxyphenyl]-1-(3,4,5-trimethoxyphenyl)-3-vinylazetidin-2-one]	–	–	–	–	–	–	–	40.5	< 10	< 10	40.2	< 10	< 10	< 10	< 10	18	< 10	< 10	13.1	< 10	half-life at 41.3 µg/mL (Plasma stability study; [6]): > 24 h
C=CC1C(=O)N(c2cc(OC)c(OC)c(OC)c2)C1c1ccc(OC)c(N)c1 (stereo not shown) [Compound 7t, 4-(3-Amino-4-methoxyphenyl)-1-(3,4,5-trimethoxyphenyl)-3-vinylazetidin-2-one]	49	18.1	< 10	32.9	18.1	11	27.2	–	–	–	–	–	–	–	–	–	–	–	–	–	GI50 (K-562): 37.2 nM; GI50 (CCRF-CEM; CCRF-CEM): 32.6 nM; GI50 (PC-3; PC-3): 41.5 nM; GI50 (HCT-15; HCT-15): 28.7 nM; GI50 (HCT-116; HCT-116): 27.6 nM; GI50 (SF539): < 10 nM; GI50 (BT-549; BT-549): 25.9 nM; GI50 (OVCAR-4; OVCAR-4): < 10 nM; GI50 (ACHN; ACHN): 37.3 nM
C=CC1C(=O)N(c2cc(OC)c(OC)c(OC)c2)C1c1ccc(OC)c(OP(=O)(O)O)c1 (stereo not shown) [Compound 17b, 2-Methoxy-5-(1-(3,4,5-trimethoxyphenyl)-4-oxo-3-vinylazetidin-2-yl)phenyl dihydrogen phosphate]	–	–	–	–	–	–	–	459	49.7	49.6	71.7	97.7	21.8	748	53.6	47.4	43.9	115	160	64.5	GI50 (K-562; [15]): 41.5 nM; GI50 (CCRF-CEM; [16]): 60.4 nM; remaining after 6 h (Plasma stability study): 94%; half-life (Plasma stability study; [6]): > 24 h; GI50 (SF539; [17]): 42 nM
CCC1C(=O)N(c2cc(OC)c(OC)c(OC)c2)C1c1ccc(OC)c(OP(=O)(O)O)c1 (stereo not shown) [Compound 17c, 5-(3-Ethyl-1-(3,4,5-trimethoxyphenyl)-4-oxoazetidin-2-yl)-2-methoxyphenyl dihydrogen phosphate]	–	–	–	–	–	–	–	63.9	36.8	27.6	35.2	7460	12.9	31.7	34.9	29.6	35	33.8	168	38.5	GI50 (K-562; [15]): 35 nM; GI50 (CCRF-CEM; [16]): 32.5 nM; remaining after 6 h (Plasma stability study): 92%; half-life (Plasma stability study; [6]): > 24 h; GI50 (SF539; [17]): 16.2 nM
